Assay results: ChEMBL document CHEMBL3885881, “DrugMatrix”

Species on record: Rattus norvegicus
Experiment: DrugMatrix - Regimen: Daily Repeat
Type: toxicity, organism-based, Sprague-Dawley
Set-up: regimen Daily Repeat, gender Male, age 6-8 weeks
Conditions: in vivo, po, 30 mg/kg, route oral GAVAGE, dose level Low, vehicle .5 % CMC; for ABSOLUTE BASOPHIL / ABSOLUTE EOSINOPHIL / ABSOLUTE LYMPHOCYTE / ABSOLUTE SEGMENTED NEUTROPHIL / BASOPHIL / EOSINOPHIL / ERYTHROCYTE COUNT / HEMATOCRIT / HEMOGLOBIN / LEUKOCYTE COUNT / LYMPHOCYTE / MEAN CORPUSCULAR HEMOGLOBIN / MEAN CORPUSCULAR HEMOGLOBIN CONCENTRATION / MEAN CORPUSCULAR VOLUME / MONOCYTE / NEUTROPHIL / NUCLEATED RED BLOOD CELLS / PLATELET COUNT: tissue Blood; for ALANINE AMINOTRANSFERASE / ASPARTATE AMINOTRANSFERASE / BLOOD UREA NITROGEN / CARBON DIOXIDE / CHLORIDE / CHOLESTEROL / CREATINE PHOSPHOKINASE / CREATININE / GLUCOSE / LACTATE DEHYDROGENASE / LIPASE / PHOSPHORUS / POTASSIUM / SODIUM / TOTAL BILIRUBIN / TOTAL PROTEIN / URIC ACID: tissue Plasma

Compound: NC(=O)N1c2ccccc2C=Cc2ccccc21 [CARBAMAZEPINE]
- ABSOLUTE BASOPHIL (72 h, time 3 day): 0 CELLS/uL
- ABSOLUTE EOSINOPHIL (72 h, time 3 day): 182 CELLS/uL
- ABSOLUTE LYMPHOCYTE (72 h, time 3 day): 15035.33 CELLS/uL
- ABSOLUTE SEGMENTED NEUTROPHIL (72 h, time 3 day): 1745.67 CELLS/uL
- BASOPHIL (72 h, time 3 day): 0%
- EOSINOPHIL (72 h, time 3 day): 1%
- ERYTHROCYTE COUNT (72 h, time 3 day): 5.25 x10E6/uL
- HEMATOCRIT (72 h, time 3 day): 33.47%
- HEMOGLOBIN (72 h, time 3 day): 12.6 G/DL
- LEUKOCYTE COUNT (72 h, time 3 day): 17.3 x10E3/uL
- LYMPHOCYTE (72 h, time 3 day): 86.67%
- MEAN CORPUSCULAR HEMOGLOBIN (72 h, time 3 day): 24.03 pg
- MEAN CORPUSCULAR HEMOGLOBIN CONCENTRATION (72 h, time 3 day): 37.67 G/DL
- MEAN CORPUSCULAR VOLUME (72 h, time 3 day): 63.8 fL
- MONOCYTE (72 h, time 3 day): 2%
- NEUTROPHIL (72 h, time 3 day): 10.33%
- NUCLEATED RED BLOOD CELLS (72 h, time 3 day): 0 /100WBC
- PLATELET COUNT (72 h, time 3 day): 1486.67 x10E3/uL
- ALANINE AMINOTRANSFERASE (72 h, time 3 day): 52 u/L
- ASPARTATE AMINOTRANSFERASE (72 h, time 3 day): 78.33 u/L
- BLOOD UREA NITROGEN (72 h, time 3 day): 16.33 mg/dL
- CARBON DIOXIDE (72 h, time 3 day): 25.67 mmol/L
- CHLORIDE (72 h, time 3 day): 101.67 MEQ/L
- CHOLESTEROL (72 h, time 3 day): 69.67 mg/dL
- CREATINE PHOSPHOKINASE (72 h, time 3 day): 157.33 u/L
- CREATININE (72 h, time 3 day): 0.2 mg/dL
- GLUCOSE (72 h, time 3 day): 143.33 mg/dL
- LACTATE DEHYDROGENASE (72 h, time 3 day): 208 u/L
- LIPASE (72 h, time 3 day): 9 u/L
- PHOSPHORUS (72 h, time 3 day): 11.33 mg/dL
- POTASSIUM (72 h, time 3 day): 6.9 MEQ/L
- SODIUM (72 h, time 3 day): 145 MEQ/L
- TOTAL BILIRUBIN (72 h, time 3 day): 0.2 mg/dL
- TOTAL PROTEIN (72 h, time 3 day): 5.53 G/DL
- URIC ACID (72 h, time 3 day): 1.57 mg/dL
- ABSOLUTE BASOPHIL (120 h, time 5 day): 0 CELLS/uL
- ABSOLUTE EOSINOPHIL (120 h, time 5 day): 0 CELLS/uL
- ABSOLUTE LYMPHOCYTE (120 h, time 5 day): 16159 CELLS/uL
- ABSOLUTE SEGMENTED NEUTROPHIL (120 h, time 5 day): 1742.33 CELLS/uL
- BASOPHIL (120 h, time 5 day): 0%
- EOSINOPHIL (120 h, time 5 day): 0%
- ERYTHROCYTE COUNT (120 h, time 5 day): 5.72 x10E6/uL
- HEMATOCRIT (120 h, time 5 day): 35.57%
- HEMOGLOBIN (120 h, time 5 day): 13.07 G/DL
- LEUKOCYTE COUNT (120 h, time 5 day): 18.27 x10E3/uL
- LYMPHOCYTE (120 h, time 5 day): 88.33%
- MEAN CORPUSCULAR HEMOGLOBIN (120 h, time 5 day): 22.87 pg
- MEAN CORPUSCULAR HEMOGLOBIN CONCENTRATION (120 h, time 5 day): 36.73 G/DL
- MEAN CORPUSCULAR VOLUME (120 h, time 5 day): 62.2 fL
- MONOCYTE (120 h, time 5 day): 2%
- NEUTROPHIL (120 h, time 5 day): 9.67%
- NUCLEATED RED BLOOD CELLS (120 h, time 5 day): 0 /100WBC
- PLATELET COUNT (120 h, time 5 day): 1400 x10E3/uL
- ALANINE AMINOTRANSFERASE (120 h, time 5 day): 40 u/L
- ASPARTATE AMINOTRANSFERASE (120 h, time 5 day): 84 u/L
- BLOOD UREA NITROGEN (120 h, time 5 day): 19.67 mg/dL
- CARBON DIOXIDE (120 h, time 5 day): 25.33 mmol/L
- CHLORIDE (120 h, time 5 day): 106.67 MEQ/L
- CHOLESTEROL (120 h, time 5 day): 60 mg/dL
- CREATINE PHOSPHOKINASE (120 h, time 5 day): 371 u/L
- CREATININE (120 h, time 5 day): 0.18 mg/dL
- GLUCOSE (120 h, time 5 day): 138.67 mg/dL
- LACTATE DEHYDROGENASE (120 h, time 5 day): 600.67 u/L
- LIPASE (120 h, time 5 day): 8.67 u/L
- PHOSPHORUS (120 h, time 5 day): 11.47 mg/dL
- POTASSIUM (120 h, time 5 day): 6.31 MEQ/L
- SODIUM (120 h, time 5 day): 144.97 MEQ/L
- TOTAL BILIRUBIN (120 h, time 5 day): 0.17 mg/dL
- TOTAL PROTEIN (120 h, time 5 day): 6.17 G/DL
- URIC ACID (120 h, time 5 day): 1.2 mg/dL
